Reference: publication PMC5458078, “Global mapping of CARM1 substrates defines enzyme specificity and substrate recognition” (Nature Communications, 2017)
Like-named read-outs stand apart in the source and are kept apart here.

Experiments:
MCF7 CARM1 KO cells = assay: Quantitative MS of ADMA-containing peptides in MCF7 CARM1 KO cells expressing CARM1 28-608 or CARM1 140-608, and in CARM1 KO; type: cell-based, human
MCF7 cells = assay: Quantitative nanoLC-MS/MS (TMT) of ADMA-containing peptides, CARM1 KO vs parental; type: cell-based, human; set-up: Fold change KO/WT: scale not given here
[1] = CARM1 140-608 vs WT, mean of 3 replicates, log2
[2] = KO vs WT, mean of 3 replicates, log2
[3] = MCF7, CARM1 KO vs WT, three biological replicates each
[4] = ratio on log2 scale, mean of 3 replicates
[5] = mean, CARM1 140-608 versus WT (log2 scale)
[6] = mean, CARM1 KO versus WT (log2 scale)
[7] = CARM1 140-608 versus WT, difference of mean log2 values
[8] = CARM1 KO versus WT, difference of mean log2 values
[9] = CARM1 KO vs wild type MCF7 cells, 3 biological replicates each
[10] = difference of log2 means, CARM1 140-608 vs WT
[11] = difference of log2 means, KO vs WT
[12] = ADMA-containing peptide, CARM1 knockout (KO) vs wild type (WT) MCF7 cells, 6-plex TMT experiment #1, three biological replicates each, sheet "MCF7"
[13] = CARM1 140-608 vs WT, mean of 3 replicates (log2 scale)
[14] = KO vs WT, mean of 3 replicates (log2 scale)
[15] = MCF7, CARM1 KO (KO1-KO3) vs wild type (WT1-WT3)
[16] = log2 scale ratio, mean of n = 3
[17] = ADMA-containing peptide, MCF7, CARM1 knockout (KO1-3) vs wild type (WT1-3), TMT 6-plex experiment #1
[18] = MCF7 CARM1 knockout vs wild type, 3 biological replicates each, values are on log2 scale

## SYGLGSEQrSQAPArYSLQSANASSLSSGQLK
MCF7 CARM1 KO cells; [1]
  CARM1 140-608/WT: -3.897
MCF7 CARM1 KO cells; [2]
  KO/WT: -5.372
MCF7 cells; [3]
  Fold change KO/WT: -5.372

## LGRPIGALArGAIGGR
MCF7 CARM1 KO cells; [4]
  CARM1 140-608/WT: 0.09518
  KO/WT: 1.211
MCF7 cells; [3]
  Fold change KO/WT: 0.325

## LRGPGGPrGGLGGGMR
MCF7 CARM1 KO cells; [5]
  CARM1 140-608/WT: 0.5472
MCF7 CARM1 KO cells; [6]
  KO/WT: 1.035
MCF7 cells; MCF7, CARM1 knockout vs wild type, n = 3 each
  Fold change KO/WT: -0.02725

## GPrFEGNRPDGPrPrYEGHPAEGTK
MCF7 CARM1 KO cells; [7]
  CARM1 140-608/WT: -1.638
MCF7 CARM1 KO cells; [8]
  KO/WT: -2.637
MCF7 cells; [9]
  Fold change KO/WT: -2.637

## VTrYPILGIPQAHR
MCF7 CARM1 KO cells; [10]
  CARM1 140-608/WT: -2.491
MCF7 CARM1 KO cells; [11]
  KO/WT: -2.966
MCF7 cells; [12]
  Fold change KO/WT: -1.789

## IAQPVrSFLQPPKPLSSLSTLR
MCF7 CARM1 KO cells; [13]
  CARM1 140-608/WT: -1.679
MCF7 CARM1 KO cells; [14]
  KO/WT: -2.977
MCF7 cells; [15]
  Fold change KO/WT: -2.977

## ErLALAAGPALrPDMSYAER
MCF7 CARM1 KO cells; [1]
  CARM1 140-608/WT: -1.6609
MCF7 CARM1 KO cells; [2]
  KO/WT: -2.368
MCF7 cells; [3]
  Fold change KO/WT: -2.368

## EVVrYLGGSGGAGGR
MCF7 CARM1 KO cells; [13]
  CARM1 140-608/WT: -0.0149
MCF7 CARM1 KO cells; [14]
  KO/WT: 0.2966
MCF7 cells; [15]
  Fold change KO/WT: 0.2966

## NELIArYIK
MCF7 CARM1 KO cells; [16]
  CARM1 140-608/WT: -0.332
  KO/WT: -0.02143
MCF7 cells; [17]
  Fold change KO/WT: 0.1085

## LINFQNHSPKPNGPVLPPHPQQLrYPPNQNIPR
MCF7 CARM1 KO cells; [7]
  CARM1 140-608/WT: 0.3327
MCF7 CARM1 KO cells; [8]
  KO/WT: 0.1723
MCF7 cells; [17]
  Fold change KO/WT: 0.6311

## TPLLGDGPrAPFNQEGQSTGPPPLIPGLGQQGAQGR
MCF7 CARM1 KO cells; [7]
  CARM1 140-608/WT: -4.072
MCF7 CARM1 KO cells; [8]
  KO/WT: -5.54
MCF7 cells; [9]
  Fold change KO/WT: -4.991

## RAPVPVrGGPK
MCF7 CARM1 KO cells; [5]
  CARM1 140-608/WT: 0.3236
MCF7 CARM1 KO cells; [6]
  KO/WT: 1.039
MCF7 cells; [18]
  Fold change KO/WT: 0.8174

## AYGQQYWGQPGNrGGYrNFYDR
MCF7 CARM1 KO cells; [5]
  CARM1 140-608/WT: -0.223
MCF7 CARM1 KO cells; [6]
  KO/WT: 0.1923
MCF7 cells; [18]
  Fold change KO/WT: 0.1386

## FrLSLFSDLPEDTELQR
MCF7 CARM1 KO cells; [13]
  CARM1 140-608/WT: -2.025
MCF7 CARM1 KO cells; [14]
  KO/WT: -2.692
MCF7 cells; [15]
  Fold change KO/WT: -2.692

## ErDQLYYECYSDVSVHEEMIADR
MCF7 CARM1 KO cells; CARM1 140-608 versus WT, mean of three replicates (log2)
  CARM1 140-608/WT: -0.3168
MCF7 CARM1 KO cells; KO versus WT, mean of three replicates (log2)
  KO/WT: -0.6326
MCF7 cells; [15]
  Fold change KO/WT: -0.1341

## VGSSNFrGGLGGGYGGASGMGGITAVTVNQSLLSPLVLEVDPNIQAVR
MCF7 CARM1 KO cells; [10]
  CARM1 140-608/WT: -0.9286
MCF7 CARM1 KO cells; [11]
  KO/WT: -0.7814
MCF7 cells; [18]
  Fold change KO/WT: -0.7814

## LGHDAYrLGQDPYrLGHDPYR
MCF7 CARM1 KO cells
  CARM1 140-608/WT: -1.958
  KO/WT: -1.784
MCF7 cells; [17]
  Fold change KO/WT: -1.784

## LLPAPrAYLVPENFR
MCF7 CARM1 KO cells; [7]
  CARM1 140-608/WT: -1.125
MCF7 CARM1 KO cells; [8]
  KO/WT: -0.8691
MCF7 cells; [9]
  Fold change KO/WT: -0.8691

## LTVPrYSIPTGDPPPYPEIASQLAQGR
MCF7 CARM1 KO cells; [7]
  CARM1 140-608/WT: -0.6093
MCF7 CARM1 KO cells; [8]
  KO/WT: -2.766
MCF7 cells; [9]
  Fold change KO/WT: -2.163

## MGTPVPrPPQDMGQIGVRTPLGPrVAAPVGPVGPTPTVLPMGAPVPrPR
MCF7 CARM1 KO cells; [13]
  CARM1 140-608/WT: -3.81
MCF7 CARM1 KO cells; [14]
  KO/WT: -4.903
MCF7 cells; [15]
  Fold change KO/WT: -2.512

## RAPAGGSLGrALMR
MCF7 CARM1 KO cells; [10]
  CARM1 140-608/WT: 0.2074
MCF7 CARM1 KO cells; [11]
  KO/WT: 0.5402
MCF7 cells; [12]
  Fold change KO/WT: 0.1845

## GPPGGNrGGFQNrGGGSGGGGNYrGGFNR
MCF7 CARM1 KO cells; [5]
  CARM1 140-608/WT: 0.1824
MCF7 CARM1 KO cells; [6]
  KO/WT: 0.1614
MCF7 cells; [18]
  Fold change KO/WT: 0.2458

## TSVYrQQQPAVPQGQrLrQQLQAK
MCF7 CARM1 KO cells; [10]
  CARM1 140-608/WT: -3.863
MCF7 CARM1 KO cells; [11]
  KO/WT: -4.228
MCF7 cells; [12]
  Fold change KO/WT: -4.048

## GAAGAVTQSLSrTPTATTSGIrATLTPTVLAPrLPQPPQNPTNIQNFQLPPGMVLVR
MCF7 CARM1 KO cells; [16]
  CARM1 140-608/WT: -3.099
  KO/WT: -4.565
MCF7 cells; [17]
  Fold change KO/WT: -4.565

## WrYNKPLPPTPDLPQPHLPPISAPGSSR
MCF7 CARM1 KO cells; [1]
  CARM1 140-608/WT: -1.118
MCF7 CARM1 KO cells; [2]
  KO/WT: -1.565
MCF7 cells; [3]
  Fold change KO/WT: -1.565

## SVVESSAPGANNLQVNALVArLPLLLPrAPR
MCF7 CARM1 KO cells; [13]
  CARM1 140-608/WT: -1.353
MCF7 CARM1 KO cells; [14]
  KO/WT: -2.886
MCF7 cells; [15]
  Fold change KO/WT: -2.886

## QLPNAGPGAPPALGFSrFPAGArYAGAGGLER
MCF7 CARM1 KO cells; [1]
  CARM1 140-608/WT: -2.691
MCF7 CARM1 KO cells; [2]
  KO/WT: -4.1849
MCF7 cells; [3]
  Fold change KO/WT: -4.1849

## SPFLGSArPrLR
MCF7 CARM1 KO cells
  CARM1 140-608/WT: -0.6148
  KO/WT: -3.721
MCF7 cells; [17]
  Fold change KO/WT: -3.721

## DVEAATGQDLGSSrYSGK
MCF7 CARM1 KO cells; [7]
  CARM1 140-608/WT: -0.09015
MCF7 CARM1 KO cells; [8]
  KO/WT: -0.4514
MCF7 cells; [9]
  Fold change KO/WT: 0.2995

## LQGLQGSGGrGGGLR
MCF7 CARM1 KO cells; [5]
  CARM1 140-608/WT: 0.05748
MCF7 CARM1 KO cells; [6]
  KO/WT: -0.4598
MCF7 cells; [18]
  Fold change KO/WT: -0.266

## QVHPFHVYPQPGMQrFR
MCF7 CARM1 KO cells; [1]
  CARM1 140-608/WT: -0.2745
MCF7 CARM1 KO cells; [2]
  KO/WT: -0.1867
MCF7 cells; [3]
  Fold change KO/WT: -0.1867

## MGLLSPSGIGGVSPrHALTSPSLGGQGR
MCF7 CARM1 KO cells; [13]
  CARM1 140-608/WT: -0.809
MCF7 CARM1 KO cells; [14]
  KO/WT: -1.616
MCF7 cells; [15]
  Fold change KO/WT: -1.616

## FPAGArYAGAGGLER
MCF7 CARM1 KO cells; [1]
  CARM1 140-608/WT: -0.8137
MCF7 CARM1 KO cells; [2]
  KO/WT: -1.235
MCF7 cells; [3]
  Fold change KO/WT: -0.6954
